Organism: Rattus norvegicus
Assay: DrugMatrix - Regimen: Daily Repeat
Type: toxicity, organism-based, Sprague-Dawley
Design: regimen Daily Repeat, gender Male, age 6-8 weeks
Details: in vivo, po, route oral GAVAGE, […]; for ABSOLUTE BASOPHIL / ABSOLUTE EOSINOPHIL / ABSOLUTE LYMPHOCYTE / ABSOLUTE MONOCYTE / ABSOLUTE SEGMENTED NEUTROPHIL / BASOPHIL / EOSINOPHIL / ERYTHROCYTE COUNT / HEMATOCRIT / HEMOGLOBIN / LEUKOCYTE COUNT / LYMPHOCYTE / MEAN CORPUSCULAR HEMOGLOBIN / MEAN CORPUSCULAR HEMOGLOBIN CONCENTRATION / MEAN CORPUSCULAR VOLUME / MONOCYTE / NEUTROPHIL / NUCLEATED RED BLOOD CELLS / PLATELET COUNT: tissue Blood; for ALANINE AMINOTRANSFERASE / ALBUMIN / ALKALINE PHOSPHATASE / ASPARTATE AMINOTRANSFERASE / BLOOD UREA NITROGEN / CARBON DIOXIDE / CHLORIDE / CHOLESTEROL / CREATINE PHOSPHOKINASE / CREATININE / GLUCOSE / LACTATE DEHYDROGENASE / LIPASE / PHOSPHORUS / POTASSIUM / SODIUM / TOTAL BILIRUBIN / TOTAL PROTEIN / URIC ACID: tissue Plasma
[1] = 100 mg/kg, 120 h, dose level Low, time 5 day
[2] = 1000 mg/kg, 72 h, dose level High, time 3 day
[3] = 1000 mg/kg, 120 h, dose level High, time 5 day

Q: For `CCCC[C@@H](CC)COC(=O)c1ccccc1C(=O)OC[C@@H](CC)CCCC` [BIS(2-ETHYLHEXYL)PHTHALATE], which “ABSOLUTE BASOPHIL” value [1] is on record?
A: 0 CELLS/uL

Q: What about the “ABSOLUTE EOSINOPHIL” value [1] of the same compound?
A: 0 CELLS/uL

Q: What about the “ABSOLUTE LYMPHOCYTE” value [1] of the same compound?
A: 8094 CELLS/uL

Q: And the “ABSOLUTE MONOCYTE” value [1]?
A: 0 CELLS/uL

Q: And the “ABSOLUTE SEGMENTED NEUTROPHIL” value [1]?
A: 772.67 CELLS/uL

Q: What about the BASOPHIL [1] of the same compound?
A: 0%

Q: What about the EOSINOPHIL [1] of the same compound?
A: 0%

Q: And the “ERYTHROCYTE COUNT” value [1]?
A: 5.86 x10E6/uL

Q: And the HEMATOCRIT [1]?
A: 36.1%

Q: What about the HEMOGLOBIN [1] of the same compound?
A: 13.63 G/DL

Q: What about the “LEUKOCYTE COUNT” value [1] of the same compound?
A: 8.87 x10E3/uL

Q: And the LYMPHOCYTE [1]?
A: 92.33%

Q: What about the “MEAN CORPUSCULAR HEMOGLOBIN” value [1] of the same compound?
A: 23.33 pg

Q: And the “MEAN CORPUSCULAR HEMOGLOBIN CONCENTRATION” value [1]?
A: 37.8 G/DL

Q: What about the “MEAN CORPUSCULAR VOLUME” value [1] of the same compound?
A: 61.67 fL

Q: What about the MONOCYTE [1] of the same compound?
A: 0%

Q: What about the NEUTROPHIL [1] of the same compound?
A: 7.67%

Q: What about the “NUCLEATED RED BLOOD CELLS” value [1] of the same compound?
A: 0 /100WBC

Q: And the “PLATELET COUNT” value [1]?
A: 682.33 x10E3/uL

Q: What about the “ALANINE AMINOTRANSFERASE” value [1] of the same compound?
A: 80 u/L

Q: What about the ALBUMIN [1] of the same compound?
A: 4.27 G/DL

Q: What about the “ALKALINE PHOSPHATASE” value [1] of the same compound?
A: 577.33 u/L

Q: And the “ASPARTATE AMINOTRANSFERASE” value [1]?
A: 98.33 u/L

Q: What about the “BLOOD UREA NITROGEN” value [1] of the same compound?
A: 14.67 mg/dL

Q: And the “CARBON DIOXIDE” value [1]?
A: 35.67 mmol/L

Q: And the CHLORIDE [1]?
A: 99 MEQ/L

Q: What about the CHOLESTEROL [1] of the same compound?
A: 41 mg/dL

Q: What about the “CREATINE PHOSPHOKINASE” value [1] of the same compound?
A: 172 u/L

Q: And the CREATININE [1]?
A: 0.21 mg/dL

Q: What about the GLUCOSE [1] of the same compound?
A: 156.33 mg/dL

Q: What about the “LACTATE DEHYDROGENASE” value [1] of the same compound?
A: 135.33 u/L

Q: What about the LIPASE [1] of the same compound?
A: 22.33 u/L

Q: What about the PHOSPHORUS [1] of the same compound?
A: 10.4 mg/dL

Q: And the POTASSIUM [1]?
A: 5.25 MEQ/L

Q: What about the SODIUM [1] of the same compound?
A: 144.53 MEQ/L

Q: What about the “TOTAL BILIRUBIN” value [1] of the same compound?
A: 0.17 mg/dL

Q: And the “TOTAL PROTEIN” value [1]?
A: 5.63 G/DL

Q: What about the “URIC ACID” value [1] of the same compound?
A: 0.63 mg/dL

Q: And the “ABSOLUTE BASOPHIL” value [2]?
A: 0 CELLS/uL

Q: And the “ABSOLUTE EOSINOPHIL” value [2]?
A: 0 CELLS/uL

Q: And the “ABSOLUTE LYMPHOCYTE” value [2]?
A: 10510 CELLS/uL

Q: And the “ABSOLUTE MONOCYTE” value [2]?
A: 28 CELLS/uL

Q: And the “ABSOLUTE SEGMENTED NEUTROPHIL” value [2]?
A: 628.67 CELLS/uL

Q: And the BASOPHIL [2]?
A: 0%

Q: And the EOSINOPHIL [2]?
A: 0%

Q: What about the “ERYTHROCYTE COUNT” value [2] of the same compound?
A: 5.07 x10E6/uL

Q: What about the HEMATOCRIT [2] of the same compound?
A: 32.33%

Q: What about the HEMOGLOBIN [2] of the same compound?
A: 12.8 G/DL

Q: What about the “LEUKOCYTE COUNT” value [2] of the same compound?
A: 11.17 x10E3/uL

Q: And the LYMPHOCYTE [2]?
A: 93.67%

Q: And the “MEAN CORPUSCULAR HEMOGLOBIN” value [2]?
A: 25.3 pg

Q: What about the “MEAN CORPUSCULAR HEMOGLOBIN CONCENTRATION” value [2] of the same compound?
A: 39.57 G/DL

Q: And the “MEAN CORPUSCULAR VOLUME” value [2]?
A: 63.8 fL

Q: And the MONOCYTE [2]?
A: 0.33%

Q: What about the NEUTROPHIL [2] of the same compound?
A: 6%

Q: What about the “NUCLEATED RED BLOOD CELLS” value [2] of the same compound?
A: 0 /100WBC

Q: And the “PLATELET COUNT” value [2]?
A: 532 x10E3/uL

Q: What about the “ALANINE AMINOTRANSFERASE” value [2] of the same compound?
A: 82 u/L

Q: And the ALBUMIN [2]?
A: 4.03 G/DL

Q: And the “ALKALINE PHOSPHATASE” value [2]?
A: 468.67 u/L

Q: And the “ASPARTATE AMINOTRANSFERASE” value [2]?
A: 94 u/L

Q: And the “BLOOD UREA NITROGEN” value [2]?
A: 14.67 mg/dL

Q: What about the “CARBON DIOXIDE” value [2] of the same compound?
A: 26 mmol/L

Q: And the CHLORIDE [2]?
A: 96.33 MEQ/L

Q: What about the CHOLESTEROL [2] of the same compound?
A: 44.67 mg/dL

Q: What about the “CREATINE PHOSPHOKINASE” value [2] of the same compound?
A: 477.67 u/L

Q: And the CREATININE [2]?
A: 0.2 mg/dL

Q: What about the GLUCOSE [2] of the same compound?
A: 161.67 mg/dL

Q: And the “LACTATE DEHYDROGENASE” value [2]?
A: 137 u/L

Q: What about the LIPASE [2] of the same compound?
A: 8.67 u/L

Q: What about the PHOSPHORUS [2] of the same compound?
A: 10.3 mg/dL

Q: What about the POTASSIUM [2] of the same compound?
A: 4.99 MEQ/L

Q: And the SODIUM [2]?
A: 137.1 MEQ/L

Q: What about the “TOTAL BILIRUBIN” value [2] of the same compound?
A: 0.0667 mg/dL

Q: What about the “TOTAL PROTEIN” value [2] of the same compound?
A: 5.33 G/DL

Q: And the “URIC ACID” value [2]?
A: 0.77 mg/dL

Q: And the “ABSOLUTE BASOPHIL” value [3]?
A: 0 CELLS/uL

Q: What about the “ABSOLUTE EOSINOPHIL” value [3] of the same compound?
A: 0 CELLS/uL

Q: What about the “ABSOLUTE LYMPHOCYTE” value [3] of the same compound?
A: 8272 CELLS/uL

Q: And the “ABSOLUTE MONOCYTE” value [3]?
A: 65 CELLS/uL

Q: And the “ABSOLUTE SEGMENTED NEUTROPHIL” value [3]?
A: 663 CELLS/uL

Q: And the BASOPHIL [3]?
A: 0%

Q: And the EOSINOPHIL [3]?
A: 0%

Q: What about the “ERYTHROCYTE COUNT” value [3] of the same compound?
A: 5.57 x10E6/uL

Q: And the HEMATOCRIT [3]?
A: 34.07%

Q: What about the HEMOGLOBIN [3] of the same compound?
A: 13.37 G/DL

Q: And the “LEUKOCYTE COUNT” value [3]?
A: 9 x10E3/uL

Q: What about the LYMPHOCYTE [3] of the same compound?
A: 92%

Q: And the “MEAN CORPUSCULAR HEMOGLOBIN” value [3]?
A: 24 pg

Q: And the “MEAN CORPUSCULAR HEMOGLOBIN CONCENTRATION” value [3]?
A: 39.23 G/DL

Q: And the “MEAN CORPUSCULAR VOLUME” value [3]?
A: 61.2 fL

Q: What about the MONOCYTE [3] of the same compound?
A: 0.67%

Q: And the NEUTROPHIL [3]?
A: 7.33%

Q: And the “NUCLEATED RED BLOOD CELLS” value [3]?
A: 0 /100WBC

Q: And the “PLATELET COUNT” value [3]?
A: 1014.67 x10E3/uL

Q: What about the “ALANINE AMINOTRANSFERASE” value [3] of the same compound?
A: 84.67 u/L

Q: And the ALBUMIN [3]?
A: 4.23 G/DL

Q: What about the “ALKALINE PHOSPHATASE” value [3] of the same compound?
A: 412.67 u/L

Q: And the “ASPARTATE AMINOTRANSFERASE” value [3]?
A: 99 u/L

Q: What about the “BLOOD UREA NITROGEN” value [3] of the same compound?
A: 14.33 mg/dL

Q: And the “CARBON DIOXIDE” value [3]?
A: 35.33 mmol/L

Q: And the CHLORIDE [3]?
A: 100.33 MEQ/L

Q: And the CHOLESTEROL [3]?
A: 53 mg/dL

Q: And the “CREATINE PHOSPHOKINASE” value [3]?
A: 324.67 u/L

Q: What about the CREATININE [3] of the same compound?
A: 0.12 mg/dL

Q: What about the GLUCOSE [3] of the same compound?
A: 168.33 mg/dL

Q: What about the “LACTATE DEHYDROGENASE” value [3] of the same compound?
A: 165.33 u/L

Q: And the LIPASE [3]?
A: 9.33 u/L

Q: What about the PHOSPHORUS [3] of the same compound?
A: 10.6 mg/dL

Q: And the POTASSIUM [3]?
A: 5.56 MEQ/L

Q: And the SODIUM [3]?
A: 144.83 MEQ/L

Q: What about the “TOTAL BILIRUBIN” value [3] of the same compound?
A: 0.13 mg/dL

Q: What about the “TOTAL PROTEIN” value [3] of the same compound?
A: 5.77 G/DL

Q: What about the “URIC ACID” value [3] of the same compound?
A: 0.7 mg/dL

Source: ChEMBL document CHEMBL3885881, “DrugMatrix”
